Values of other authors as cited in US20030004236A1, “Magnetic resonance imaging agents for detection and delivery of therapeutic agents and detection of physiological substances” (priority 2001, published 2003).

Conditions: thermodynamic stability of the Gd(III) chelate; background section

stability constant (K), also known as formation constant, logK | Compound
22.4 | O=C([O-])CN(CCN(CC(=O)[O-])CC(=O)[O-])CCN(CC(=O)[O-])CC(=O)[O-].[Gd+3] [Gd(DTPA)^2−]
28.5 | O=C([O-])CN1CCN(CC(=O)[O-])CCN(CC(=O)O)CCN(CC(=O)[O-])CC1.[Gd+3] [Gd-DOTA]
